According to US20050196362A1, “Personal care compositions containing highly branched primary alcohol component” (priority 2004, published 2005):

Experiments:
[1] = In vitro SPF of sunscreen formulation with dispersing agent; conditions: sunscreen formulation with 15.00 % by weight dispersing agent; artificial medium
Protocol: (§1) This example compares the alcohol of the present invention to several other dispersing agents in terms of in vitro SPF and viscosity. In vitro SPF means that the test was not carried out on human skin, but an artificial medium. The sunscreen formulation is manufactured as follows. The ingredients of Phase A are combined together at 75° C. The ingredients of Phase B are combined together at 75° C. Phase B is then added to Phase A. Phase C is added to the resulting mixture, followed by cooling of the mixture to 40° C. and adding Phase D. The formulation is ready for packaging at a temperature of 35° C.

[2] = Viscosity of sunscreen formulation with dispersing agent; type: physicochemical; conditions: sunscreen formulation with 15.00 % by weight dispersing agent
Protocol: as §1

[3] = Pigment dispersion: amount of Z-cote dispersed before viscosity reaches 10,000 cps; type: physicochemical; conditions: 100 g solubilizer/dispersant; Brookfield RVT 20 rpm, 25° C.
Protocol: (§2) The branched primary alcohol component and the Z-cote were mixed for 15 minutes at 5000 rpm using a Silverson mixer to form a dispersion of zinc oxide in the alcohol component. The dispersion was allowed to equilibrate to room temperature (25° C.), and then viscosity measurements were taken using a Brookfield (RTM) RVT Viscometer set at 20 rpm. Additional Z-cote was then added to the branched alcohol component in incremental amounts of 15 g. Viscosity measurements were taken after mixing each incremental amount of Z-cote with the branched alcohol component for 15 minutes and after allowing the resulting dispersion to return to room temperature. When the viscosity of the dispersion reached or exceeded 10,000 cps no further additions of Z-cote were made and no further viscosity measurements were taken. A target viscosity of 10,000 cps was selected since a dispersion having a viscosity of greater than 10,000 cps is not preferred for use in a sunscreen composition.
From FIG. 1, the amount of Z-cote needed to provide a dispersion having a viscosity of 10,000 cps may be determined for each solubilizer/dispersant.
(§3) Pigment Dispersion: Pigment was added to a 100 gm of emollient sample. The mixture was blended using a Silverson mixer for 15 minutes at 5000 rpm. The viscosity was measured after the sample had equilibrated to room temperature.

[4] = Pigment dispersion: amount of Z-cote HP1 dispersed before viscosity reaches 10,000 cps; type: physicochemical; conditions: 100 g solubilizer/dispersant; Brookfield RVT 20 rpm, 25° C.
Protocol: as §2, §3

[5] = Pigment dispersion: amount of Eusolex T2000 dispersed before viscosity reaches 10,000 cps; type: physicochemical; conditions: 100 g solubilizer/dispersant; Brookfield RVT 20 rpm, 25° C.
Protocol: as §2, §3

[6] = Solubility profile of branched emollient alcohols in cosmetic solvents; type: physicochemical; set-up: key: +: Soluble; +/−: Dispersible
[7] = Viscosity of lotion/moisturizer emulsions containing the fatty alcohol; type: physicochemical
Protocol: Solubility: Two emulsion types (W/O-water-in-oil night cream/lotion and O/W-oil-in-water moisturizer lotion) were prepared. Both types of products incorporated commonly used cosmetic ingredients. The C1617 MM MO and the Guerbet C16 alcohols were used at 15% in the W/O lotion and 10% in the moisturizer.
MO C1617 mono-methyl branched primary alcohol was formulated in a water-in-oil night cream and an oil-in-water moisturizer formula as indicated in Tables 8 and 10 respectively. The viscosity and formula properties of the MO methyl-branched primary alcohol were evaluated relative to a branched C18 emollient alcohol and the data is indicated in Tables 9 and 11 respectively.

[8] = Freeze/Thaw testing of prototype formulation (3 cycles); type: physicochemical; conditions: three 24 hr. freeze/thaw cycles
Protocol: Freeze/Thaw testing: Phase stability was observed using approximately 30 ml of a prototype formulation. After preparation, the samples were cooled until solid for 24 hrs. They were allowed to equilibrate to room temperature when the appearance of the formulation was recorded. This process was repeated for three 24 hr. freeze/thaw cycles.

[9] = Oven stability test of W/O and O/W lotions; type: physicochemical; conditions: 90 days at 23° C. and 45° C.
Protocol: Stability Tests: All W/O and O/W lotions were placed on stability testing for phase and odor stability monitoring for 90 days at 23° C. (room temperature) and 45° C.

[10] = Table 8 formulation, 15.0 % wt fatty alcohol
[11] = Table 10 oil-in-water moisturizer, 10.0 % wt fatty alcohol

Molecule: CCCCCCCCCCCCCCCC(=O)OCC(CC)CCCC (centres unmarked) [Ethylhexylpalmitate]
- In-vitro SPF [1]: 22.73
- Viscosity, cps [2]: 13000 cps

Molecule: octyldodecyl neopentanoate [Elefac I-205]
- Amount in grams of Z-cote needed to give a viscosity of 10,000 cps [3]: 24 grams
- Amount in grams of Z-cote HP1 needed to give a viscosity of 10,000 cps [4]: 65 grams
- Amount in grams of Eusolex T2000 needed to give a viscosity of 10,000 cps [5]: 35 grams

Molecule: CCCCCCCCOC(=O)CCCCCCCCC(=O)OCCCCCCCC [Dioctyl sebacate (DOS), Dioctyl sebacate]
- Amount in grams of Z-cote needed to give a viscosity of 10,000 cps [3]: 20 grams
- Amount in grams of Z-cote HP1 needed to give a viscosity of 10,000 cps [4]: 50 grams
- Amount in grams of Eusolex T2000 needed to give a viscosity of 10,000 cps [5]: 34 grams

Molecule: CCCCCCCCC(CO)CCCCCC (centres unmarked) [Guerbet C16 Branched]
- Solubility ([6]; C12-15 Alkyl Benzoate (90%), @ 25° C.): +
- Solubility ([6]; C12-15 Alkyl Benzoate (90%), @ 50° C.): +
- Solubility ([6]; Dimethicone 245 (90%), @ 25° C.): +
- Solubility ([6]; Dimethicone 245 (90%), @ 50° C.): +
- Solubility ([6]; Isododecane (90%), @ 25° C.): +
- Solubility ([6]; Isododecane (90%), @ 50° C.): +
- Solubility ([6]; Isohexadecane (90%), @ 25° C.): +
- Solubility ([6]; Isohexadecane (90%), @ 50° C.): +
- Solubility ([6]; Isopropylmyristyl Alcohol (90%), @ 25° C.): +
- Solubility ([6]; Isopropylmyristyl Alcohol (90%), @ 50° C.): +
- Solubility ([6]; Mineral Oil (90%), @ 25° C.): +
- Solubility ([6]; Mineral Oil (90%), @ 50° C.): +
- Solubility ([6]; Octocrylene (30%), @ 25° C.): +
- Solubility ([6]; Octocrylene (30%), @ 50° C.): +
- Solubility ([6]; Octyl Dimethyl Paba (30%), @ 25° C.): +
- Solubility ([6]; Octyl Dimethyl Paba (30%), @ 50° C.): +
- Solubility ([6]; Octyldodecanol (90%), @ 25° C.): +
- Solubility ([6]; Octyldodecanol (90%), @ 50° C.): +
- Solubility ([6]; Propylene Glycol (90%), @ 25° C.): +/−
- Solubility ([6]; Propylene Glycol (90%), @ 50° C.): +
- Solubility ([6]; Sesame Oil (90%), @ 25° C.): +
- Solubility ([6]; Sesame Oil (90%), @ 50° C.): +
- Viscosity, cps [7, 10]: 7,600 cps
- Viscosity, cps [7, 11]: 11,300 cps
- Freeze-Thaw (3 cycles) [8, 10]: Pass
- Freeze-Thaw (3 cycles) [8, 11]: Pass
- Oven Stability [9, 10]: Pass
- Oven Stability [9, 11]: Pass
- In-vitro SPF [1]: 22.6
- Viscosity, cps [2]: 2700 cps
